# Measured values reported in US6737383B1, “Herbicidal oxadiazolidines” (priority 1999, dated 2004).
# Tests used:
# morningglory = assay: Test B pre/postemergence morningglory; format: in vivo, Ipomoea hederacea; conditions: for Morningglory plant response rating (0 to 10 scale): 0 is no effect
# Method in brief: (§1)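 Response is a visual 0-to-10 score relative to untreated plants, where 0 means no effect and 10 means complete control, taken twelve to sixteen days after application. Treatments went onto soil at planting and onto foliage of 1- to 4-leaf plants, using a surfactant-containing non-phytotoxic solvent.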
# velvetleaf = assay: Test B pre/postemergence velvetleaf; format: in vivo, Abutilon theophrasti; conditions: for Velvetleaf plant response rating (0 to 10 scale): Rate 125 g/ha, 0 is no effect
# Method in brief: as §1
# wild oat = assay: Test B pre/postemergence wild oat; format: in vivo, Avena fatua; conditions: for Wild oats plant response rating (0 to 10 scale): Rate 125 g/ha, 0 is no effect
# Method in brief: as §1
# pigweed = assay: Test B pre/postemergence pigweed; format: in vivo, Amaranthus retroflexus; conditions: for Redroot pigweed plant response rating (0 to 10 scale): 0 is no effect
# Method in brief: as §1
# surinam grass = assay: Test B pre/postemergence surinam grass; format: in vivo, Brachiaria decumbens; conditions: for B. signalgrass plant response rating (0 to 10 scale): 0 is no effect
# Method in brief: as §1
# bedstraw = assay: Test B pre/postemergence bedstraw; format: in vivo, Galium aparine; conditions: for Bedstraw plant response rating (0 to 10 scale): 0 is no effect
# Method in brief: as §1
# soybean = assay: Test B pre/postemergence soybean; format: in vivo, Glycine max; conditions: for Soybean plant response rating (0 to 10 scale): 0 is no effect
# Method in brief: as §1
# rape = assay: Test B pre/postemergence rape; format: in vivo, Brassica napus; conditions: for Rape plant response rating (0 to 10 scale): 0 is no effect
# Method in brief: as §1
# crabgrass = assay: Test B pre/postemergence crabgrass; format: in vivo, Digitaria sanguinalis; conditions: for Crabgrass plant response rating (0 to 10 scale): 0 is no effect
# Method in brief: as §1
# corn = assay: Test B pre/postemergence corn; format: in vivo, Zea mays; conditions: for Corn plant response rating (0 to 10 scale): 0 is no effect
# Method in brief: as §1
# sugar beet = assay: Test B pre/postemergence sugar beet; format: in vivo, Beta vulgaris; conditions: for Sugarbeets plant response rating (0 to 10 scale): 0 is no effect
# Method in brief: as §1
# cocklebur = assay: Test B pre/postemergence cocklebur; format: in vivo, Xanthium strumarium; conditions: for Cocklebur plant response rating (0 to 10 scale): 0 is no effect
# Method in brief: as §1
# [1] = Postemergence, Rate 125 g/ha, scale of 0 to 10 where 0 is no effect and 10 is complete control
# [2] = Preemergence, Rate 62 g/ha, scale of 0 to 10 where 0 is no effect and 10 is complete control
# [3] = Preemergence, Rate 125 g/ha, 10 is complete control
# [4] = Preemergence, Rate 250 g/ha, scale 0 to 10, 0 is no effect, 10 is complete control
# [5] = Preemergence, Rate 500 g/ha, scale 0 to 10 (0 no effect, 10 complete control)
# [6] = Rate 62 g/ha, Postemergence, scale of 0 to 10 where 0 is no effect and 10 is complete control
# [7] = Rate 250 g/ha, Postemergence, scale 0 to 10, 0 is no effect, 10 is complete control
# [8] = Rate 500 g/ha, Postemergence, scale 0 to 10
# [9] = Preemergence, 10 is complete control
# [10] = Rate 500 g/ha, Postemergence, scale 0 to 10, 0 no effect, 10 complete control
structure (smiles),measurement,setting,value
CC(C)N(C(=O)n1oc(=O)n([C@@H](C)c2ccccc2)c1=O)c1ccc(F)cc1 [Compound 167],Morningglory plant response rating,morningglory; [1],5
same,Morningglory plant response rating,morningglory; [2],0
same,Morningglory plant response rating (0 to 10 scale),morningglory; [3],0
same,Morningglory plant response rating,morningglory; [4],0
same,Morningglory plant response rating,morningglory; [5],0
same,Morningglory plant response rating,morningglory; [6],2
same,"Plant response rating, Morningglory",morningglory; [7],5
same,Morningglory plant response rating,morningglory; [8],8
same,Velvetleaf plant response rating,velvetleaf; [2],0
same,Velvetleaf plant response rating (0 to 10 scale),velvetleaf; [9],0
same,Velvetleaf plant response rating,velvetleaf; [4],0
same,Velvetleaf plant response rating,velvetleaf; [5],3
same,"Plant response rating, Velvetleaf",velvetleaf; [7],0
same,Velvetleaf plant response rating,velvetleaf; [8],2
same,Wild oats plant response rating,wild oat; [2],0
same,Wild oats plant response rating (0 to 10 scale),wild oat; [9],0
same,Wild oats plant response rating,wild oat; [4],3
same,Wild oats plant response rating,wild oat; [5],6
same,"Plant response rating, Wild oats",wild oat; [7],0
same,Wild oats plant response rating,wild oat; [8],0
same,Redroot pigweed plant response rating,pigweed; [1],0
same,Redroot pigweed plant response rating,pigweed; [2],0
same,Redroot pigweed plant response rating (0 to 10 scale),pigweed; [3],6
same,Redroot pigweed plant response rating,pigweed; [4],8
same,Redroot pigweed plant response rating,pigweed; [5],8
same,Redroot pigweed plant response rating,pigweed; [6],0
same,"Plant response rating, Redroot pigweed",pigweed; [7],3
same,Redroot pigweed plant response rating,pigweed; [8],7
same,B. signalgrass plant response rating,surinam grass; [1],0
same,B. signalgrass plant response rating,surinam grass; [2],2
same,B. signalgrass plant response rating (0 to 10 scale),surinam grass; [3],5
same,B. signalgrass plant response rating,surinam grass; [4],5
same,B. signalgrass plant response rating,surinam grass; [5],8
same,B. signalgrass plant response rating,surinam grass; [6],0
same,"Plant response rating, B. signalgrass",surinam grass; [7],0
same,B. signalgrass plant response rating,surinam grass; [10],0
same,Bedstraw plant response rating,bedstraw; [1],0
same,Bedstraw plant response rating,bedstraw; [2],0
same,Bedstraw plant response rating (0 to 10 scale),bedstraw; [3],0
same,Bedstraw plant response rating,bedstraw; [4],3
same,Bedstraw plant response rating,bedstraw; [5],5
same,Bedstraw plant response rating,bedstraw; [6],0
same,"Plant response rating, Bedstraw",bedstraw; [7],8
same,Soybean plant response rating,soybean; [1],3
same,Soybean plant response rating,soybean; [2],0
same,Soybean plant response rating (0 to 10 scale),soybean; [3],0
same,Soybean plant response rating,soybean; [4],0
same,Soybean plant response rating,soybean; [5],0
same,Soybean plant response rating,soybean; [6],2
same,"Plant response rating, Soybean",soybean; [7],3
same,Soybean plant response rating,soybean; [8],5
same,Rape plant response rating,rape; [1],0
same,Rape plant response rating,rape; [2],0
same,Rape plant response rating (0 to 10 scale),rape; [3],0
same,Rape plant response rating,rape; [4],0
same,Rape plant response rating,rape; [5],5
same,Rape plant response rating,rape; [6],0
same,"Plant response rating, Rape",rape; [7],0
same,Rape plant response rating,rape; [8],0
same,Crabgrass plant response rating,crabgrass; [1],3
same,Crabgrass plant response rating,crabgrass; [2],7
same,Crabgrass plant response rating (0 to 10 scale),crabgrass; [3],8
same,Crabgrass plant response rating,crabgrass; [4],10
same,Crabgrass plant response rating,crabgrass; [5],10
same,Crabgrass plant response rating,crabgrass; [6],0
same,"Plant response rating, Crabgrass",crabgrass; [7],9
same,Crabgrass plant response rating,crabgrass; [8],9
same,Corn plant response rating,corn; [1],0
same,Corn plant response rating,corn; [2],0
same,Corn plant response rating (0 to 10 scale),corn; [3],0
same,Corn plant response rating,corn; [4],0
same,Corn plant response rating,corn; [5],0
same,Corn plant response rating,corn; [6],0
same,"Plant response rating, Corn",corn; [7],0
same,Corn plant response rating,corn; [8],0
same,Sugarbeets plant response rating,sugar beet; [1],0
same,Sugarbeets plant response rating,sugar beet; [2],0
same,Sugarbeets plant response rating (0 to 10 scale),sugar beet; [3],2
same,Sugarbeets plant response rating,sugar beet; [4],5
same,Sugarbeets plant response rating,sugar beet; [5],5
same,Sugarbeets plant response rating,sugar beet; [6],0
same,"Plant response rating, Sugarbeets",sugar beet; [7],0
same,Sugarbeets plant response rating,sugar beet; [8],0
same,Cocklebur plant response rating,cocklebur; [1],0
same,Cocklebur plant response rating,cocklebur; [2],0
same,Cocklebur plant response rating (0 to 10 scale),cocklebur; [3],0
same,Cocklebur plant response rating,cocklebur; [4],0
same,Cocklebur plant response rating,cocklebur; [5],0
same,Cocklebur plant response rating,cocklebur; [6],0
same,"Plant response rating, Cocklebur",cocklebur; [7],0
same,Cocklebur plant response rating,cocklebur; [8],2
CC(C)N(C(=O)n1oc(=O)n([C@@H](C)c2ccccc2)c1=O)c1ccc(Cl)cc1 [Compound 174],Morningglory plant response rating,morningglory; [1],5
same,Morningglory plant response rating,morningglory; [2],0
same,Morningglory plant response rating (0 to 10 scale),morningglory; [3],0
same,Morningglory plant response rating,morningglory; [4],0
same,Morningglory plant response rating,morningglory; [5],0
same,Morningglory plant response rating,morningglory; [6],3
same,"Plant response rating, Morningglory",morningglory; [7],5
same,Morningglory plant response rating,morningglory; [8],5
same,Velvetleaf plant response rating,velvetleaf; [2],0
same,Velvetleaf plant response rating (0 to 10 scale),velvetleaf; [9],0
same,Velvetleaf plant response rating,velvetleaf; [4],0
same,Velvetleaf plant response rating,velvetleaf; [5],0
same,"Plant response rating, Velvetleaf",velvetleaf; [7],0
same,Velvetleaf plant response rating,velvetleaf; [8],0
same,Wild oats plant response rating,wild oat; [2],0
same,Wild oats plant response rating (0 to 10 scale),wild oat; [9],0
same,Wild oats plant response rating,wild oat; [4],0
same,Wild oats plant response rating,wild oat; [5],0
same,"Plant response rating, Wild oats",wild oat; [7],0
same,Wild oats plant response rating,wild oat; [8],0
same,Redroot pigweed plant response rating,pigweed; [1],4
same,Redroot pigweed plant response rating,pigweed; [2],0
same,Redroot pigweed plant response rating (0 to 10 scale),pigweed; [3],6
same,Redroot pigweed plant response rating,pigweed; [4],8
same,Redroot pigweed plant response rating,pigweed; [5],9
same,Redroot pigweed plant response rating,pigweed; [6],0
same,"Plant response rating, Redroot pigweed",pigweed; [7],6
same,Redroot pigweed plant response rating,pigweed; [8],6
same,B. signalgrass plant response rating,surinam grass; [1],0
same,B. signalgrass plant response rating,surinam grass; [2],0
same,B. signalgrass plant response rating (0 to 10 scale),surinam grass; [3],0
same,B. signalgrass plant response rating,surinam grass; [4],0
same,B. signalgrass plant response rating,surinam grass; [5],4
same,B. signalgrass plant response rating,surinam grass; [6],0
same,"Plant response rating, B. signalgrass",surinam grass; [7],0
same,B. signalgrass plant response rating,surinam grass; [10],0
same,Bedstraw plant response rating,bedstraw; [1],4
same,Bedstraw plant response rating,bedstraw; [2],0
same,Bedstraw plant response rating (0 to 10 scale),bedstraw; [3],0
same,Bedstraw plant response rating,bedstraw; [5],3
same,Bedstraw plant response rating,bedstraw; [6],0
same,"Plant response rating, Bedstraw",bedstraw; [7],6
same,Soybean plant response rating,soybean; [1],2
same,Soybean plant response rating,soybean; [2],0
same,Soybean plant response rating (0 to 10 scale),soybean; [3],0
same,Soybean plant response rating,soybean; [4],0
same,Soybean plant response rating,soybean; [5],0
same,Soybean plant response rating,soybean; [6],2
same,"Plant response rating, Soybean",soybean; [7],2
same,Soybean plant response rating,soybean; [8],4
same,Rape plant response rating,rape; [1],0
same,Rape plant response rating,rape; [2],0
same,Rape plant response rating (0 to 10 scale),rape; [3],0
same,Rape plant response rating,rape; [4],0
same,Rape plant response rating,rape; [5],4
same,Rape plant response rating,rape; [6],0
same,"Plant response rating, Rape",rape; [7],0
same,Rape plant response rating,rape; [8],2
same,Crabgrass plant response rating,crabgrass; [1],4
same,Crabgrass plant response rating,crabgrass; [2],2
same,Crabgrass plant response rating (0 to 10 scale),crabgrass; [3],8
same,Crabgrass plant response rating,crabgrass; [4],8
same,Crabgrass plant response rating,crabgrass; [5],10
same,Crabgrass plant response rating,crabgrass; [6],2
same,"Plant response rating, Crabgrass",crabgrass; [7],7
same,Crabgrass plant response rating,crabgrass; [8],8
same,Corn plant response rating,corn; [1],0
same,Corn plant response rating,corn; [2],0
same,Corn plant response rating (0 to 10 scale),corn; [3],0
same,Corn plant response rating,corn; [4],0
same,Corn plant response rating,corn; [5],0
same,Corn plant response rating,corn; [6],0
same,"Plant response rating, Corn",corn; [7],0
same,Corn plant response rating,corn; [8],0
same,Sugarbeets plant response rating,sugar beet; [1],0
same,Sugarbeets plant response rating,sugar beet; [2],3
same,Sugarbeets plant response rating (0 to 10 scale),sugar beet; [3],3
same,Sugarbeets plant response rating,sugar beet; [4],6
same,Sugarbeets plant response rating,sugar beet; [5],6
same,Sugarbeets plant response rating,sugar beet; [6],0
same,"Plant response rating, Sugarbeets",sugar beet; [7],6
same,Sugarbeets plant response rating,sugar beet; [8],6
same,Cocklebur plant response rating,cocklebur; [1],1
same,Cocklebur plant response rating,cocklebur; [2],0
same,Cocklebur plant response rating (0 to 10 scale),cocklebur; [3],0
same,Cocklebur plant response rating,cocklebur; [4],0
same,Cocklebur plant response rating,cocklebur; [5],0
same,Cocklebur plant response rating,cocklebur; [6],0
same,"Plant response rating, Cocklebur",cocklebur; [7],2
same,Cocklebur plant response rating,cocklebur; [8],3
